According to EP4745135A1 (Gluetacs Therapeutics (Shanghai) Co., Ltd., priority 2023, dated 2025):
pIC50: −log10 of the molar value.

Assays:
[1] = molecular target: T1, CK1α (Homo sapiens, UniProt P48729+Q96SW2); test: Western blot, degradation of substrate protein in hPBMCs; assay type: cell-based
T1 construct: effects of the compounds of the present disclosure on the expression of target proteins in cells; endogenous in cells; host or cells: human PBMCs (Milecell Biotechnologies)

[2] = molecular target: T2, IKZF1 (Homo sapiens, UniProt Q13422+Q96SW2); test: as above; assay type: cell-based
T2 construct: effects of the compounds of the present disclosure on the expression of target proteins in cells; endogenous in cells; host or cells: human PBMCs (Milecell Biotechnologies)

[3] = molecular target: T3, IKZF2 (Homo sapiens, UniProt Q96SW2+Q9UKS7); test: as above; assay type: cell-based
T3 construct: effects of the compounds of the present disclosure on the expression of target proteins in cells; endogenous in cells; host or cells: human PBMCs (Milecell Biotechnologies)

[4] = molecular target: T4, IKZF3 (Homo sapiens, UniProt Q96SW2+Q9UKT9); test: as above; assay type: cell-based
T4 construct: effects of the compounds of the present disclosure on the expression of target proteins in cells; endogenous in cells; host or cells: human PBMCs (Milecell Biotechnologies)

[5] = molecular target: T5, WEE1 (Homo sapiens, UniProt P30291+Q96SW2); test: as above; assay type: cell-based
T5 construct: effects of the compounds of the present disclosure on the expression of target proteins in cells; endogenous in cells; host or cells: human PBMCs (Milecell Biotechnologies)

[6] = system: GSPT1; test: as above; assay type: cell-based, Human
[7] = molecular target: T6, human Cereblon WT GST-tagged protein (Homo sapiens, UniProt Q96SW2); test: CRBN-binding affinity, HTRF (CEREBLON BINDING kit); conditions: for inhibition at 0.5 µM: read-out: Inhibition Rate at 0.5 µM (%); for inhibition at 2 µM: read-out: Inhibition Rate at 2 µM (%)
T6 construct: purchased CISBIO 64BDCRBNPEH

[8] = Western blot, 24 hours of compound treatment, compounds tested at 50 nM and 500 nM (concentration for the table not stated)
[9] = 24 hours treatment, compounds at 50 nM and 500 nM (concentration behind the class not stated)

T1 sequence (P48729 whole entry): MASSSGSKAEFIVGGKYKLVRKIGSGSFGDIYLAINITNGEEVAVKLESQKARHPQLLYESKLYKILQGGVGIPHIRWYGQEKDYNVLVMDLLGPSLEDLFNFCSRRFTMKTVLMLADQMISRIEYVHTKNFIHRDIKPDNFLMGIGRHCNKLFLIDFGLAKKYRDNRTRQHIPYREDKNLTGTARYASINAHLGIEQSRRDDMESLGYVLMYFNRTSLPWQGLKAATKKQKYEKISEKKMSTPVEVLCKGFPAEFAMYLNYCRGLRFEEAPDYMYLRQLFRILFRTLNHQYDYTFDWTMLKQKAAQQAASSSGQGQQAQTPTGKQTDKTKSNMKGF
T1 sequence (Q96SW2 whole entry): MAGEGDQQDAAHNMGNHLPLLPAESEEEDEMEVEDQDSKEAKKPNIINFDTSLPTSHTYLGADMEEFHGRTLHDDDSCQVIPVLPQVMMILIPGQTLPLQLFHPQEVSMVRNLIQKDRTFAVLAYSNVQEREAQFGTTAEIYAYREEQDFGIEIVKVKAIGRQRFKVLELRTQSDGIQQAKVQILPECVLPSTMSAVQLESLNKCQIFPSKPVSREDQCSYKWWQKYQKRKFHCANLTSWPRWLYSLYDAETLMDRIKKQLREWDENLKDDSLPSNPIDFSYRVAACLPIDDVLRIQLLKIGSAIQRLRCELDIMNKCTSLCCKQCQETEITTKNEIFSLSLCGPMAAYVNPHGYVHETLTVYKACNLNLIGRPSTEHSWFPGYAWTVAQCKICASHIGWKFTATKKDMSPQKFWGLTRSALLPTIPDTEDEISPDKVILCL
T1 sequence (Q16531 whole entry partner): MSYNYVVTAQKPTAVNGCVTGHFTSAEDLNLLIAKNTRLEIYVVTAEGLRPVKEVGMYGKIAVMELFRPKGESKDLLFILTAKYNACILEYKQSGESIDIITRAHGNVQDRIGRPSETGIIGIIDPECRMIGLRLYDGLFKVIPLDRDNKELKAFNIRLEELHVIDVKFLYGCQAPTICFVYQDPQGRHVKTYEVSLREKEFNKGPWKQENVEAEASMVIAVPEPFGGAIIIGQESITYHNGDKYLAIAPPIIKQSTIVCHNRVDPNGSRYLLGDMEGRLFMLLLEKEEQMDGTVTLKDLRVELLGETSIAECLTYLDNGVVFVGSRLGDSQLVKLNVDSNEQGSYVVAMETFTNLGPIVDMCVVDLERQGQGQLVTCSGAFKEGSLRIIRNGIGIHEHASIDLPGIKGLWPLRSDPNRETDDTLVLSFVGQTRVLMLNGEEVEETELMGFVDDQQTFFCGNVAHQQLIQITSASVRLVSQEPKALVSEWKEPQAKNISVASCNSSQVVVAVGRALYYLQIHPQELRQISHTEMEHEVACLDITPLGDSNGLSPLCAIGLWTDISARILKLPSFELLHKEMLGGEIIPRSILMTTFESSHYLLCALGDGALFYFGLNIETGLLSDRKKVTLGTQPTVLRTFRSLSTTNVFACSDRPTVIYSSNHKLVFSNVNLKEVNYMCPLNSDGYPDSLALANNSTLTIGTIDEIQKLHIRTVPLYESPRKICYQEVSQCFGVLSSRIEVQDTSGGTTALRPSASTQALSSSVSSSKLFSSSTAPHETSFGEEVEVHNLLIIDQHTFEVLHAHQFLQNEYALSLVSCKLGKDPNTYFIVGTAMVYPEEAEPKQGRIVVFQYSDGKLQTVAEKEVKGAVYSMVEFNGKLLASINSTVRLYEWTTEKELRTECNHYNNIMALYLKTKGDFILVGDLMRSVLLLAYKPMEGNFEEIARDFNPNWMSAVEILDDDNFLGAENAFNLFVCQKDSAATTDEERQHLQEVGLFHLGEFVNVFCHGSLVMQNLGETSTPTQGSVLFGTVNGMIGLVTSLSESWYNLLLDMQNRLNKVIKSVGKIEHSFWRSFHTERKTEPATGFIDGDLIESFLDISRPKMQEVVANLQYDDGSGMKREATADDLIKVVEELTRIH
T3 sequence (Q9UKS7 whole entry): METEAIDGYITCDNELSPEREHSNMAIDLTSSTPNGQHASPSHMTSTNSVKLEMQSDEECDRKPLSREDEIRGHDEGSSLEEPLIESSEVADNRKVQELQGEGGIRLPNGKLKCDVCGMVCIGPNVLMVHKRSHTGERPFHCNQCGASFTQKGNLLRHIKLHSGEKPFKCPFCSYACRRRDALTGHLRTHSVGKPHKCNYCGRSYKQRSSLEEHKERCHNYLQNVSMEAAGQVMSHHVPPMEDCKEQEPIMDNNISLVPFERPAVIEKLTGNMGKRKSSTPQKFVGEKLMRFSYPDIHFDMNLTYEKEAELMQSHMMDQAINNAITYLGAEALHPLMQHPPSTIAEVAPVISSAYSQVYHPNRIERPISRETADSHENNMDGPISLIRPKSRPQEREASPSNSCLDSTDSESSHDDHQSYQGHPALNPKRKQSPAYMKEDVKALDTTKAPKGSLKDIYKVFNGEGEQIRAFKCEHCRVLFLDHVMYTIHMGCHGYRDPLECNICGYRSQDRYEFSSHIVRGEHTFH
T3 sequence (Q96SW2 whole entry): as the sequence (Q96SW2 whole entry) above
T3 sequence (Q16531 whole entry partner): as the sequence (Q16531 whole entry partner) above
T2 sequence (Q13422 whole entry): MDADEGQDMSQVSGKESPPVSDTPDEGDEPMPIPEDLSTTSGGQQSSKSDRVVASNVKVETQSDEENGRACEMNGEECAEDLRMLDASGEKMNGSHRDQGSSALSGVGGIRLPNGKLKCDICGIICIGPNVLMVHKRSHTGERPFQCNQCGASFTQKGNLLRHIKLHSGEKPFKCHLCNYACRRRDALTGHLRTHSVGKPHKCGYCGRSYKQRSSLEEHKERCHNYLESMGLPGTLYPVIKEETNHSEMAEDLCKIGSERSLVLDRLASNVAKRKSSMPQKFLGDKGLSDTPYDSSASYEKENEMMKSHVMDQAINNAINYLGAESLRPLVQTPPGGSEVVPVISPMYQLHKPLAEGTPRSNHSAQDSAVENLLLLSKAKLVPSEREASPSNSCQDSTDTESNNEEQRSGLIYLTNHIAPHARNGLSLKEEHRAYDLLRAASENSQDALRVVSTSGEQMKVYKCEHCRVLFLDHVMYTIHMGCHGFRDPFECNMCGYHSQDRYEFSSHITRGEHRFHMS
T2 sequence (Q96SW2 whole entry): as the sequence (Q96SW2 whole entry) above
T2 sequence (Q16531 whole entry partner): as the sequence (Q16531 whole entry partner) above
T4 sequence (Q9UKT9 whole entry): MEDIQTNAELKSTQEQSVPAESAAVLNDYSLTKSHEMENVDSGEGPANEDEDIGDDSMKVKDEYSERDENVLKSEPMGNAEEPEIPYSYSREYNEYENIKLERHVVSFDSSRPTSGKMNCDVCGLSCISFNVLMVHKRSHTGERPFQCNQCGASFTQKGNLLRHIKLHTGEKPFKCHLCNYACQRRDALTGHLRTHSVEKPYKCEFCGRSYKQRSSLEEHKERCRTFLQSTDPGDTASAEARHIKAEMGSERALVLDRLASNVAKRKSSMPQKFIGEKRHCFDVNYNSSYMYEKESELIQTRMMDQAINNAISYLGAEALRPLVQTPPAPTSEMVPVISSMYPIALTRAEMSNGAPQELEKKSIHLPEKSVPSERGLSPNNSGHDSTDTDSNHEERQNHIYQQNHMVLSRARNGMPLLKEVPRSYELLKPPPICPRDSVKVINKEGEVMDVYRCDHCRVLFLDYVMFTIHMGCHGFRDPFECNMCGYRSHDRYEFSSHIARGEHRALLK
T4 sequence (Q96SW2 whole entry): as the sequence (Q96SW2 whole entry) above
T4 sequence (Q16531 whole entry partner): as the sequence (Q16531 whole entry partner) above
T6 sequence (Q96SW2 whole entry): as the sequence (Q96SW2 whole entry) above
T5 sequence (P30291 whole entry): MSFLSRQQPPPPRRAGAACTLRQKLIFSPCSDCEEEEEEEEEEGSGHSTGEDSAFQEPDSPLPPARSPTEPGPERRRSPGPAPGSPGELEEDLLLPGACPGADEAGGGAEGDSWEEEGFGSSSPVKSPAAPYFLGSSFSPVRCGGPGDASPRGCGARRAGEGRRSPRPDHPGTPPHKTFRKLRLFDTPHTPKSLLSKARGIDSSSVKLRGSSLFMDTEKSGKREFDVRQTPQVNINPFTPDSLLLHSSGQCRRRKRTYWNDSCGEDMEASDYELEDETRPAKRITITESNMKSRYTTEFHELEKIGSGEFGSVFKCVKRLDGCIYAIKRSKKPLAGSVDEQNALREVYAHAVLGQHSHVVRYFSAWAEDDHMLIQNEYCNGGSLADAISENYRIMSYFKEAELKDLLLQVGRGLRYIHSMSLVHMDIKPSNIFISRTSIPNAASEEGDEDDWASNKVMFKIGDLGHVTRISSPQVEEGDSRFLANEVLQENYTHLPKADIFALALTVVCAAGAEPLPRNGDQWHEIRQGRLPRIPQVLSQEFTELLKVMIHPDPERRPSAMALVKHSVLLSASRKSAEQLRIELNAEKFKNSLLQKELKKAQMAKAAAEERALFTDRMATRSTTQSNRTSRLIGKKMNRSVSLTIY
T5 sequence (Q96SW2 whole entry): as the sequence (Q96SW2 whole entry) above
T5 sequence (Q16531 whole entry partner): as the sequence (Q16531 whole entry partner) above

Compound	inhibition at 0.5 µM [7] [%]	inhibition at 2 µM [7] [%]	pIC50 ([7]; CRBN binding, HTRF, 3 hours at room temperature, read-out: HTRF IC50)	CK1α substrate protein remaining % [1, 8]	IKZF 1 substrate protein remaining % [2, 8]	IKZF2 substrate protein remaining % [3, 8]	IKZF3 substrate protein remaining % [4, 8]	Wee1 substrate protein remaining % [5, 8]	GSPT1 substrate protein remaining % [6, 8]	CK1α substrate protein remaining % [1, 9]	IKZF 1 substrate protein remaining % [2, 9]	IKZF2 substrate protein remaining % [3, 9]	IKZF3 substrate protein remaining % [4, 9]	Wee1 substrate protein remaining % [5, 9]	GSPT1 substrate protein remaining % [6, 9]
O=C1CCC(N2Cc3cc(CN4CCN(c5ccsc5)CC4)ccc3C2=S)C(=O)N1 (centres unmarked) [GT-08169, 3-(5-((4-(thiophen-3-yl)piperazin-1-yl)methyl)-1-thioxoisoindolin-2-yl)piperidine-2,6-dione]	80 to 100	80 to 100								B (80%< substrate protein remaining %≤ 100%)	B (80%< substrate protein remaining %≤ 100%)	B (80%< substrate protein remaining %≤ 100%)	B (80%< substrate protein remaining %≤ 100%)	A (0% ≤ substrate protein remaining % ≤ 80%)	A (0% ≤ substrate protein remaining % ≤ 80%)
O=C1CCC(N2Cc3cc(CN4CCC(c5ncnc6scc(-c7ccccc7)c56)CC4)ccc3C2=S)C(=O)N1 (centres unmarked) [GT-09307, 3-(5-((4-(5-phenylthieno[2,3-d]pyrimidin-4-yl)piperidin-1-yl)methyl)-1-thioxoisoindolin-2-yl)piperidine-2,6-dione]	60 to 80	80 to 100								A (0% ≤ substrate protein remaining % ≤ 80%)	A (0% ≤ substrate protein remaining % ≤ 80%)	B (80%< substrate protein remaining %≤ 100%)	A (0% ≤ substrate protein remaining % ≤ 80%)	A (0% ≤ substrate protein remaining % ≤ 80%)	A (0% ≤ substrate protein remaining % ≤ 80%)
O=C1CCC(N2Cc3cc(CO)ccc3C2=S)C(=O)N1 (centres unmarked) [GT-06977, 3-(5-(hydroxymethyl)-1-thioxoisoindolin-2-yl)piperidine-2,6-dione]			> 7.00							B (80%< substrate protein remaining %≤ 100%)	B (80%< substrate protein remaining %≤ 100%)	B (80%< substrate protein remaining %≤ 100%)	A (0% ≤ substrate protein remaining % ≤ 80%)	A (0% ≤ substrate protein remaining % ≤ 80%)	B (80%< substrate protein remaining %≤ 100%)
O=C1CCC(N2Cc3c(CN4CCN(c5ccc(Br)cc5)CC4)cccc3C2=S)C(=O)N1 (centres unmarked) [GT-08496, 3-(4-((4-(4-bromophenyl)piperazin-1-yl)methyl)-1-thioxoisoindolin-2-yl)piperidine-2,6-dione]	40 to 53	80 to 100		B (80%< substrate protein remaining %≤ 100%)	A (0% ≤ substrate protein remaining % ≤ 80%)	A (0% ≤ substrate protein remaining % ≤ 80%)	B (80%< substrate protein remaining %≤ 100%)	A (0% ≤ substrate protein remaining % ≤ 80%)	A (0% ≤ substrate protein remaining % ≤ 80%)						
O=C1CCC(N2Cc3c(CN4CCN(c5ccccc5Cl)CC4)cccc3C2=S)C(=O)N1 (centres unmarked) [GT-08265, 3-(4-((4-(2-chlorophenyl)piperazin-1-yl)methyl)-1-thioxoisoindolin-2-yl)piperidine-2,6-dione]	40 to 53	53 to 60		B (80%< substrate protein remaining %≤ 100%)	B (80%< substrate protein remaining %≤ 100%)	B (80%< substrate protein remaining %≤ 100%)	B (80%< substrate protein remaining %≤ 100%)	A (0% ≤ substrate protein remaining % ≤ 80%)	A (0% ≤ substrate protein remaining % ≤ 80%)						
O=C1CCC(N2Cc3c(CN4CCN(c5ccncc5F)CC4)cccc3C2=S)C(=O)N1 (centres unmarked) [GT-08730, 3-(4-((4-(3-fluoropyridin-4-yl)piperazin-1-yl)methyl)-1-thioxoisoindolin-2-yl)piperidine-2,6-dione]	60 to 80	80 to 100		B (80%< substrate protein remaining %≤ 100%)	B (80%< substrate protein remaining %≤ 100%)	B (80%< substrate protein remaining %≤ 100%)	B (80%< substrate protein remaining %≤ 100%)	A (0% ≤ substrate protein remaining % ≤ 80%)	B (80%< substrate protein remaining %≤ 100%)						

The next lines start with results.

inhibition at 0.5 µM [7] [%]	inhibition at 2 µM [7] [%]	pIC50 ([7]; CRBN binding, HTRF, 3 hours at room temperature, read-out: HTRF IC50)	Compound	CK1α substrate protein remaining % [1, 8]	IKZF 1 substrate protein remaining % [2, 8]	IKZF2 substrate protein remaining % [3, 8]	IKZF3 substrate protein remaining % [4, 8]	Wee1 substrate protein remaining % [5, 8]	GSPT1 substrate protein remaining % [6, 8]	CK1α substrate protein remaining % [1, 9]	IKZF 1 substrate protein remaining % [2, 9]	IKZF2 substrate protein remaining % [3, 9]	IKZF3 substrate protein remaining % [4, 9]	Wee1 substrate protein remaining % [5, 9]	GSPT1 substrate protein remaining % [6, 9]
53 to 60	80 to 100		O=C1CCC(N2Cc3cc(CN4CC5CCC4CN5C(c4ccccc4)c4ccccc4)ccc3C2=S)C(=O)N1 (centres unmarked) [GT-07847, 3-(5-((5-benzhydryl-2,5-diazabicyclo[2.2.2]octan-2-yl)methyl)-1-thioxoisoindolin-2-yl)piperidine-2,6-dione]	B (80%< substrate protein remaining %≤ 100%)	B (80%< substrate protein remaining %≤ 100%)	A (0% ≤ substrate protein remaining % ≤ 80%)	A (0% ≤ substrate protein remaining % ≤ 80%)	A (0% ≤ substrate protein remaining % ≤ 80%)	A (0% ≤ substrate protein remaining % ≤ 80%)						
30 to 40	60 to 80		O=C1CCC(N2Cc3cc(CN4CCC(c5ccc(Br)cc5)CC4)ccc3C2=S)C(=O)N1 (centres unmarked) [GT-08618, 3-(5-((4-(4-bromophenyl)piperidin-1-yl)methyl)-1-thioxoisoindolin-2-yl)piperidine-2,6-dione]	B (80%< substrate protein remaining %≤ 100%)	B (80%< substrate protein remaining %≤ 100%)	B (80%< substrate protein remaining %≤ 100%)	B (80%< substrate protein remaining %≤ 100%)	B (80%< substrate protein remaining %≤ 100%)	A (0% ≤ substrate protein remaining % ≤ 80%)						
60 to 80	80 to 100		Cc1nc(C2CCN(Cc3ccc4c(c3)CN(C3CCC(=O)NC3=O)C4=S)CC2)c2c3c(sc2n1)CCC3 (centres unmarked) [GT-09312, 3-(5-((4-(2-methyl-6,7-dihydro-5H-cyclopenta[4,5]thieno[2,3-d]pyrimidin-4-yl)piperidin-1-yl)methyl)-1-thioxoisoindolin-2-yl)piperidine-2,6-dione]							B (80%< substrate protein remaining %≤ 100%)	B (80%< substrate protein remaining %≤ 100%)	B (80%< substrate protein remaining %≤ 100%)	A (0% ≤ substrate protein remaining % ≤ 80%)	B (80%< substrate protein remaining %≤ 100%)	A (0% ≤ substrate protein remaining % ≤ 80%)
